Measurements: patent publication US11951185B2, “RNA constructs and uses thereof” (BioNTech SE, priority 2020, dated 2024)

Experiments:
[1] = LNP formulation comparison: RNA encapsulation efficiency, apparent pKa, LNP size and polydispersity; assay type: physicochemical; settings: LNP with surrogate RNA coding for luciferase; among the screened cationic lipids
Protocol: (§1) An exemplary LNP delivery system was developed to effectively and safely deliver therapeutic nucleic acids into the cytosol of various cell types after local administration in vivo. The early formulation work was performed with several promising LNP formulations and surrogate RNA coding for luciferase. The aim of the experiments was to correlate the effect of different ionizable cationic lipids on the efficacy of RNA delivery by LNPs in vivo. Formulations were compared in terms of RNA encapsulation efficiency, apparent pKa, LNP size and polydispersity.

luciferase (Luc) RNA = test: In vivo screening of LNP pilot batches using luciferase (Luc) RNA, intravenous administration; settings: on the basis of the in vivo screening studies
Protocol: as §1
Based on this the ALC-0315/DSPC/CHOL/ALC-0159 prototype was submitted for in vivo screening. The results presented in FIG. 16 summarize the in vivo testing of two independent pilot batches using luciferase (Luc) RNA.
The formulation screening procedure described above involves intravenous administration resulting in delivery primarily to the liver. The mechanism of LNP uptake into hepatocytes is driven by binding of endogenous apolipoproteins to the LNP followed by receptor-mediated endocytosis e.g. through low density lipoprotein receptors. […] Luc expression was monitored at 4, 24, 72 and 96 hours post administration (FIG. 17).

CCCCCCCCC(CCCCCC)C(=O)OCCCCCCN(CCCCO)CCCCCCOC(=O)C(CCCCCC)CCCCCCCC (centres unmarked) [ALC-0315, ((4-hydroxybutyl)azanediyl)bis(hexane-6,1-diyl)bis(2-hexyldecanoate)]
physical characteristics regarding particle size, homogeneity, and RNA encapsulation efficiency [1]: suitable physical characteristics | potency as cationic lipid (luciferase (Luc) RNA): highly potent
